Measurements: patent US11008286B2, “Amino mercaptan compound and preparation method therefor and use thereof in protection against radiation” (Institute of Radiation Medicine Chinese Academy of Medical …, priority 2016, dated 2021)
Structures can show the parent of a compound that is named as a salt. Where two headings read alike, the source gives them in different places. Where a SMILES comes first, the peptide text is derived from it. [ ]: non-standard residue; d: D form.

Experiments:
C57 male mice [1] = assay: Example G: effect of stereoisomerism on survival rate of mice under 7.5Gy irradiation; assay type: in vivo; conditions: 200 mg/kg IP 30 min before irradiation; for deaths: 9 mice per group
Source text: Laboratory animals: C57 male mice, 19-21 g, purchased from Beijing HFK Bioscience Co. Ltd., license number SCXK (Beijing), 9 mice in each group.

C57BL/6 mice = assay: Example A: 30-day survival of mice after whole-body 137Cs γ-ray irradiation; assay type: in vivo; conditions: 200 mg/kg intraperitoneally
Protocol: Material: The gamma ray irradiation device is a ^137Cs irradiator, with a dose rate of 0.7Gy/min. C57BL/6 mice, male, weighing 21-22 g, purchased from Beijing HFK Bioscience Co. Ltd., certificate number SCXK (Beijing) 2014-0004, grouped as: no irradiation group, irradiation and blank solvent group, irradiation and administration group, with 5 mice in each group.
The 30-day survival of the mice in each group was observed, the survival rates were calculated, the body weights were followed, and the organs and white blood cells of mice in each group were compared after 30 days.
Results: At the same administration dose of the four compounds (200 mg/kg, one dose at 24 hours before irradiation and one dose at 30 minutes before irradiation), one-time whole body irradiation with 6.8Gy, 7.2Gy and 7.5Gy ^137Cs gamma rays was performed, respectively, compared with the radiation and blank solvent group. The 30-day survival rate of mice was 100% when compound 1 was used in the cases of irradiations of 6.8Gy and 7.2Gy, respectively. The effects of normal control group and compound 1, compound 2, compound 3 and compound 4 on organs and leukocytes in mice 30 days after irradiation with 7.2Gy are shown in FIG. 4. The effects of normal control group and compound 1 on organs and leukocytes in mice 30 days after irradiation with 6.8Gy and 7.5Gy, respectively, are shown in FIGS. 2 and 6.

C57 male mice [2] = conditions: for survival rates compared with amifostine: absorbed dose 6.8Gy and 7.2Gy
Protocol: Laboratory animals: C57 male mice, 8-10 weeks old, 20-22 g, were divided into 4 groups, 5 or 10 or 15 or 20 or 25 mice in each group.
Observation index: The death and weight of the mice were recorded, and the survival rate was calculated on the 30th day.

C57 male mice [3] = assay type: in vivo; conditions: no irradiation, 30-day
Protocol: Administration and grouping: Each group was intraperitoneally injected with one corresponding dose of amifostine. • Each group was intraperitoneally injected with one corresponding dose of Example 17 (IP).
The 30-day survival rate of mice in each group was recorded.

[4] = 6.8Gy, 200 mpk IP 30 min before irradiation, day 30
[5] = 7.5Gy, 400 mpk IP 90 min before irradiation
[6] = 7.5Gy, 800 mpk IP 90 min before irradiation
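Wherever survival rates compared with amifostine is given: mice aged 8-10 weeks, weighing 20-22 g, with deaths logged and survival rate computed on day 30.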

| SMILES | Survival number/Test number (C57 male mice [1]) | deaths (C57 male mice [1]) | Survival rate (C57 male mice [1]) | Survival number/Test number (C57 male mice [2]; 7.2Gy, 200 mpk IP, day 30) | Survival rate (C57 male mice [2]; 7.2Gy, 200 mpk IP, day 30) | survival rates compared with amifostine (C57 male mice [2]) | further results |
| --- | --- | --- | --- | --- | --- | --- | --- |
| CNC(=O)C(CS)NC(=O)C(CS)NC (racemic) [Example 19, 3-mercapto-N-(3-mercapto-1-(methylamino)-1-oxopropan-2-yl)-2-(methylamino) propionamide trifluoroacetate] | 2/9 | (7 deaths) |  |  |  |  |  |
| CNC(=O)C(CS)NC(=O)C(CS)NC(=O)C(CS)NC (racemic) [Example 20, (RS)-3-mercapto-N—((RS)-3-mercapto-1-(((RS)-3-mercapto-1-(methylamino)-1-oxopropan-2-yl)amino)-1-oxopropan-2-yl)-2-(methylamino) propanamide trifluoroacetate] | 1/9 | (8 deaths) |  |  |  |  |  |
| N[C@H](CS)C(=O)O [D-Cys, D-cysteine, reference compound] | 0/9 | (9 deaths) |  |  |  |  |  |
| NC(=O)[C@H](CS)NC(=O)[C@@H](N)CS [Example 1, (R)-2-amino-N—((R)-1-amino-3-mercapto-1-oxopropan-2-yl)-3-mercaptopropanamide trifluoroacetate] (H-Cys-Cys-NH2) | 1/9 | (8 deaths) | approximately 11% | 6/10 | 60% | survival rates comparable to those using amifostine | 30-day survival rate (C57BL/6 mice; 6.8Gy 137Cs γ rays whole body): 100%; 30-day survival rate (C57BL/6 mice; 7.2Gy 137Cs γ rays whole body): 100% |
| CNC(=O)[C@H](CS)NC(=O)[C@H](CS)NC [Example 2, (R)-3-mercapto-N—((R)-3-mercapto-1-(methylamino)-1-oxopropan-2-yl)-2-(methylamino) propionamide trifluoroacetate] | 4/9 | (5 deaths) | approximately 44% | 10/15 | 66.67% | survival rates comparable to those using amifostine |  |
| NC(=O)[C@H](CS)NC(=O)[C@H](CS)NC(=O)[C@@H](N)CS [Example 3, (R)-2-amino-N—((R)-1-(((R)-1-amino-3-mercapto-1-oxopropan-2-yl)amino)-3-mercapto-1-oxopropan-2-yl)-3-mercaptopropanamide trifluoroacetate] (H-Cys-Cys-Cys-NH2) | 2/9 | (7 deaths) | approximately 22% | 10/15 | 66.67% | survival rates comparable to those using amifostine |  |
| CNC(=O)[C@@H](CS)NC(=O)[C@@H](CS)NC(=O)[C@@H](CS)NC [Example 8, (S)-3-mercapto-N—((S)-3-mercapto-1-(((S)-3-mercapto-1-(methylamino)-1-oxopropan-2-yl)amino)-1-oxopropan-2-yl)-2-(methylamino) propanamide] |  |  |  | 1/5 | 20% | survival rates comparable to those using amifostine |  |
| NC(=O)[C@H](CS)NC(=O)[C@H](N)CS [Example 17, (S)-2-amino-N—((R)-1-amino-3-mercapto-1-oxopropan-2-yl)-3-mercaptopropanamide trifluoroacetate] (H-[dC]-Cys-NH2) |  |  |  | 9/10 | 90% | survival rates comparable to those using amifostine | Survival number/Test number (C57 male mice [3]; 400 mpk IP): 5/5; Survival number/Test number (C57 male mice [3]; 800 mpk IP): 5/5; Survival number/Test number (C57 male mice [3]; 1600 mpk IP): 4/5; Survival number/Test number (C57 male mice [2]; [4]): 5/5; Survival rate (C57 male mice [2]; [4]): 100%; Survival number/Test number (C57 male mice [2]; 7.5Gy, 200 mpk IP, day 30): 0/5; Survival rate (C57 male mice [2]; 7.5Gy, 200 mpk IP, day 30): 0%; Survival number/Test number (C57 male mice [2]; [5]): 0/5; Survival rate (C57 male mice [2]; [5]): 0%; Survival number/Test number (C57 male mice [2]; [6]): 0/5; Survival rate (C57 male mice [2]; [6]): 0% |
| NC(=O)[C@@H](CS)NC(=O)[C@@H](N)CS [Example 18, (R)-2-amino-N—((S)-1-amino-3-mercapto-1-oxopropan-2-yl)-3-mercaptopropanamide trifluoroacetate] (H-Cys-[dC]-NH2) |  |  |  | 4/5 | 80% | survival rates comparable to those using amifostine |  |
| N[C@@H](CS)C(=O)O [L-Cys, L-cysteine, reference compound] | 1/9 | (8 deaths) |  |  |  |  |  |
